Reference: patent EP0791603A2, “Pure somatostatin antagonist and methods of use thereof” (American Cyanamid Company, priority 1996, dated 1997)
Positions of bridges follow the written chain, without caps; N, C: chain ends. Non-standard residues stand in square brackets, D forms with d. Residues, ends and D or L forms follow the SMILES beside them. Phe(4-NO2) = N[C@@H](Cc1ccc([N+](=O)[O-])cc1)C(=O)O; dPhe(4-NO2) = N[C@H](Cc1ccc([N+](=O)[O-])cc1)C(=O)O; 2Nal = N[C@@H](Cc1ccc2ccccc2c1)C(=O)O; NMeA = CN[C@@H](C)C(=O)O

Assays:
[1] = target: SSTR2 (Rattus norvegicus, UniProt P30680); assay: Competitive binding, displacement of [125I]Tyr11 S-14; design: expressed in transfected cells; settings: [125I]Tyr11 S-14 250 pM, room temperature 2 hours
SSTR2 (Rattus norvegicus, UniProt P30680), sequence (P30680 whole entry): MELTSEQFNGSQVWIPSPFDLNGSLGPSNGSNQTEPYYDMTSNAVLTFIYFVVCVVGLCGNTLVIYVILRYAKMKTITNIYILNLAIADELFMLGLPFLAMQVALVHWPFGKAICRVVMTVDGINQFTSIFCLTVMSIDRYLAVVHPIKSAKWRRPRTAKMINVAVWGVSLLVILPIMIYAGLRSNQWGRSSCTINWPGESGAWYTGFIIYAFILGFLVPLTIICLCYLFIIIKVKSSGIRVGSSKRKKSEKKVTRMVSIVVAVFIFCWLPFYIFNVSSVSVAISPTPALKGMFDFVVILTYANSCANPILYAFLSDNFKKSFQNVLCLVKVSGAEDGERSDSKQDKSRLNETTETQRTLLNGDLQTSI
Experimental: In this evaluation the concentration of test compound required to displace 50% of somatostatin, SRIF, from the SRIF receptor subtypes expressed in mammalian cells is measured, i.e., the concentration required to inhibit 50% of [^125I] Tyr^11 S-14 (Amersham) (IC50) from binding to the SRIF receptor subtypes.
Radiolabeled SRIF is mixed with pituitary cells, the test compound is added, the mixture is incubated and the radioactivity is measured as compared to control. Reduced radioactivity indicates successful competitive binding of the test compound to the pituitary cell receptor. The concentration of the test compound in nanomolar units required to displace 50% of SRIF from the pituitary cell receptor is calculated and reported in Table II as the IC50 value. Also calculated is the inhibitory constant, Ki.
Tyr^11S-14 (150,000 cpm at 2000 Ci/mmole, 250 pM final concentration). The binding reaction is initiated by adding 2-60µg of membrane protein in a 170 µL volume. Final reaction volume is 200 µl/well. All incubations are carried out at room temperature for 2 hours. Free radioligand is separated from bound ligand by rapid filtration through a glass fiber filter (IH-201-HA) using an Inotech cell harvester. The filter is then washed several times with cold (4°C) binding buffer lacking BSA and protease inhibitors prior to counting in an LKB gamma master counter (78% efficiency). Whatman GFC filters presoaked in 0.3% polyethylenimine (to decrease background) are used.
The IC50 values and Ki values are calculated using the well-known methods described by Y. Cheng and W. H. Prusoff, Biochem. Pharmacol. 22, 3099-3108 (1973), incorporated herein by reference thereto.

[2] = test system: SSTR2; assay: Cyclic AMP accumulation in intact cells (forskalin stimulated, adrenal binding protein method); type: cell-based; settings: % intrinsic activity
Text: Cyclic AMP accumulation assays are used to determine the functional coupling of somatostatin receptors to effectors. All five cloned somatostatin receptors inhibit cyclic AMP accumulation and adenylyl cyclone activity ^1 ^,2,3,4,5. This evaluation measures cyclic AMP accumulation from intact cells using the adrenal binding protein method. Signal transduction by somatostatin is mediated by lowering intracellular c-AMP levels. This functional assay measures the ability of the test compound to inhibit the effect of somatostatin on forskalin stimulated c-AMP levels. ^1 K. Yasuda, S. Rens-Damiano, C. D. Breder, S. F. Law, C. B. Saper, T. Reisine and G. I. Bell, J. Biol. Chem. 267,20422-20428 (1992). ^2 J. F. Bruno, Y. Xu, J. Song and M. Berelowitz, Proc. Natl. Acad. Sci. USA 89, 11151-11155 (1992). ^3 A. M. O'Carrol, S. J. Lolait, M. König and L. Mahan, Mol. Pharmacol. 42, 939-946 (1992). ^4 J. R. Hadcock, J. Strnad and C. M. Eppler, Mol. Pharmacol. 45, 410-416 (1994). ^5 J. Strnad, C. M. Eppler, M. Corbett and J. R. Hadcock, Biochem. Biophys. Res. Commun.191, 968-976 (1993).
Bovine adrenal gland extracts are prepared according to the method of Brown et al^6 with minor modifications. […] Two-four adrenals are thawed and the cortices are separated on ice: chopped into small pieces; resuspended in 1.5 volumes of buffer containing 0.25 M sucrose, 50 mM Tris-HCl pH 7.4, 25 mM KCl, 5 mM MgCl2 and protease inhibitors (5 µg/ml leupeptin, 5µg/ml aprotinin, 100 µg/ml bacitracin, and 100 µg/ml benzamidine; homogenized with a Polytron and centrifuged for 5 minutes. The resultant supernatant is saved and centrifuged for 15 minutes. This resultant supernatant is saved and stored as 1 mL aliquots at -80°C. Four adrenals glands are usually sufficient to prepare 30-50 one mL aliquots. Each preparation is tested with standards at different dilutions before use in the following experiment. ^6 B. L. Brown, J. D. M. Albano, R. P. Ekins and A. M. Sgherzi, Biochem. J. 121, 561-562 (1971).
Somatostatin-mediated inhibition of cyclic AMP accumulation is measured in intact cells co-incubated with the diterpene forskalin (5 µM) which activates adenylyl cyclase directly and stimulates cyclic AMP accumulation in cells. The medium is aspirated from two 100 mm plates of cells, a 5 mL portion of phosphate-buffered saline containing 2 mM EDTA is added to each plate. The cells are washed off the plate, without scraping. The cells are then pelleted and resuspended in Kreb's Ringers Phosphate (KRP) containing 2 mM CaCl2 (added fresh), washed once and resuspended in 2 ml of KRP with a CaCl2 containing 100 µM IBMX. The cells are counted and the concentration of cells is adjusted to 50,000/70 µl and incubated 15 minutes at room temperature before starting the assay. […]

IC50 ([1]; membrane protein, read-out: SSTR2 Binding Affinity IC50) [µM]	Ki ([1]; calculated by Cheng and Prusoff, read-out: SSTR2 Binding Affinity Ki) [µM]	Structure (SMILES)	% IA [2] [%]
0.055	0.0244	CC(C)[C@@H]1NC(=O)[C@H](CCCCN)NC(=O)[C@@H](Cc2c[nH]c3ccccc23)NC(=O)[C@H](Cc2ccc(O)cc2)NC(=O)[C@H](NC(=O)[C@@H](N)Cc2ccc([N+](=O)[O-])cc2)CSSC[C@@H](C(=O)N(C)[C@@H](C)C(N)=O)NC1=O [H-p-NO2Phe-D-Cys-Tyr-D-Trp-Lys-Val-Cys-N(CH3)Ala-NH2] (H-[Phe(4-NO2)][dC]Y[dW]KVC[NMeA]-NH2; disulfide 2-7)	29
		NCCCC[C@@H]1NC(=O)[C@@H](Cc2c[nH]c3ccccc23)NC(=O)[C@H](Cc2ccc(O)cc2)NC(=O)[C@H](NC(=O)[C@@H](N)Cc2ccc([N+](=O)[O-])cc2)CSSC[C@@H](C(=O)N[C@@H](Cc2ccc3ccccc3c2)C(N)=O)NC(=O)[C@H](CO)NC1=O (H-[Phe(4-NO2)][dC]Y[dW]KSC[2Nal]-NH2; disulfide 2-7)	7
		C[C@@H](O)[C@@H]1NC(=O)[C@H](CCCCN)NC(=O)[C@@H](Cc2c[nH]c3ccccc23)NC(=O)[C@H](Cc2ccc(O)cc2)NC(=O)[C@H](NC(=O)[C@@H](N)Cc2ccc(I)cc2)CSSC[C@@H](C(=O)N[C@@H](Cc2ccc(O)cc2)C(N)=O)NC1=O	-12
		CC(C)[C@@H]1NC(=O)[C@H](CCCCN)NC(=O)[C@@H](Cc2c[nH]c3ccccc23)NC(=O)[C@H](Cc2ccc(O)cc2)NC(=O)[C@H](NC(=O)[C@H](N)Cc2ccc([N+](=O)[O-])cc2)CSSC[C@@H](C(=O)N[C@@H](Cc2ccc(O)cc2)C(N)=O)NC1=O (H-[dPhe(4-NO2)][dC]Y[dW]KVCY-NH2; disulfide 2-7)	42
